Test results from US20240292843A1, “BIOFILM REMOVAL” (PARTNERS FOR ENDOSCOPY LIMITED, priority 2021, published 2024).

Tested on: biofilm containing Pseudomonas aeruginosa
Assay: Biofilm treatment of endoscope biopsy channel pieces, CFU by serial dilution and plate counting (FIG. 1)
Format: cell-based
Conditions: mature biofilm on biopsy channel tubes; treatment applied for 5 minutes; 1.5 wt. % hydrogen peroxide or 1 mg/ml zeolite Y, aqueous; versus phosphate-buffer saline control; triplicate
Experimental: The biopsy channel of the endoscope harbors a biofilm containing Pseudomonas aeruginosa. As a first step, to form the sample biopsy tubes harboring the biofilm, the biopsy channel was first cut into small pieces, which are then submerged into Müller-Hilton broth. A single colony of Pseudomonas aeruginosa was added to the broth. At a second step, the pieces were kept in the broth at 37° C. for 24 hours to allow the bacteria to grow. Also in the second step, the tube pieces were then washed 5 times with a copious amount of water to remove dangling bacteria, and to leave only fixed biofilm remaining on the surface of the tubes. The second step is then repeated three times to provide a mature biofilm. To provide the data of FIG. 1, different treatment mixtures were applied for 5 minutes to the tubes with mature biofilm. The tubes with mature biofilm were prepared using the method above. After the treatment mixture is applied, the tubes are washed. The tubes are then placed in a centrifuge tube floating in an ultrasonic bath to release bacteria in the biofilm into solution. The number of colony forming units (CFU) is calculated via serial dilution and plate counting method. Each experiment is performed in triplicate.

OO [hydrogen peroxide]
number of colony forming units of the Pseudomonas aeruginosa bacteria: causes a reduction
